# From patent publication US9394299B2, “Rilyazine derivatives and compositions for the treatment of cancer” (Warner Babcock Institute for Green Chemistry, LLC, priority 2013, dated 2016)
# “Also recorded” adds a separate entry of the source.
# Assays:
# [1] = test system: 60 cell lines (human tumor cell lines of the cancer screening panel); assay: NCI 60 cell line screening, single point dosing at 10 μM (SRB); type: cell-based
# Experimental: (§1) The screening is a two-stage process, beginning with the evaluation of all compounds against 60 cell lines at a single dose of 10^−5 M.
# (§2) The human tumor cell lines of the cancer screening panel are grown in RPMI 1640 medium containing 5% fetal bovine serum and 2 mM L-glutamine. Cells are inoculated into 96 well microtiter plates in 100 μL at plating densities ranging from 5,000 to 40,000 cells/well depending on the doubling time of individual cell lines. After cell inoculation, the microtiter plates are incubated at 37° C., 5% CO2, 95% air and 100% relative humidity for 24 h prior to addition of experimental drugs.
# After 24 h, two plates of each cell line are fixed in situ with TCA, to represent a measurement of the cell population for each cell line at the time of drug addition Time Zero (Tz). Experimental drugs are solubilized in dimethyl sulfoxide:glycerol 9:1 at 400-fold the desired final maximum test concentration and stored frozen at −70° C. prior to use. At the time of drug addition, an aliquot of frozen concentrate is thawed and diluted to twice the desired final maximum test concentration with complete medium containing 50 μg/ml gentamicin. Additional four, 10-fold or ½ log serial dilutions are made to provide a total of five drug concentrations plus control. Aliquots of 100 μl of these different drug dilutions are added to the appropriate microtiter wells already containing 100 μl of medium, resulting in the required final drug concentrations.
# Positive control is prepared by adding the known anti-tumor agent adriamycin, NSC 123127, prepared and stored the same as the compounds for testing.
# Following drug addition, the plates are incubated for an additional 48 h at 37° C., 5% CO2, 95% air, and 100% relative humidity. For adherent cells, the assay is terminated by the addition of cold TCA. Cells are fixed in situ by the gentle addition of 50 μl of cold 50% (w/v) TCA (final concentration, 10% TCA) and incubated for 60 minutes at 4° C. The supernatant is discarded, and the plates are washed five times with tap water and air dried. Sulforhodamine B (SRB) solution (100 μl) at 0.4% (w/v) in 1% acetic acid is added to each well, and plates are incubated for 10 minutes at room temperature. After staining, unbound dye is removed by washing five times with 1% acetic acid and the plates are air dried. Bound stain is subsequently solubilized with 10 mM trizma base, and the absorbance is read on an automated plate reader at a wavelength of 515 nm. For suspension cells, the methodology is the same except that the assay is terminated by fixing settled cells at the bottom of the wells by gently adding 50 μl of 80% TCA (final concentration, 16% TCA).
# (§3) For the 1-dose 60 cell testing, the Growth Percent is calculated for each cell line/drug combination from the absorbance measurement for the no-drug control (C), the absorbance at time zero (Tz) and the absorbance measurement after incubation of the cells in the presence of drug (Ti): Growth Percent=[(Ti−Tz)/(C−Tz)]×100 for cell line/drug combinations for which Ti≧Tz. Growth Percent=[(Ti−Tz)/Tz]×100 for cell line/drug combinations for which Ti<Tz.
# Calculation of the Growth Percent by these equations allows detection of both growth inhibition (Growth Percent values between 0 and 100) and lethality (Growth Percent values less than 0). For example, a Growth Percent value of 100 means no growth inhibition. A Growth Percent value of 40 would mean 60% growth inhibition. A Growth Percent value of 0 means no net growth over the course of the experiment, or “cytostatic”, no change by growth or cell death. A Growth Percent value of −40 would mean 40% lethality. A Growth Percent value of −100 means all cells are dead.
# For 1-dose 60 cell testing, the Mean Growth Percent, Delta and Range across all 60 cell lines are also calculated. The Deviation of each cell line/drug combination from the Mean is also calculated and plotted: Deviation=Mean Growth Percent−Growth Percent […]
# [2] = test system: NCI-H552 (non-small cell lung cancer); assay: NCI single point 10 μM, NCI-H552; type: cell-based, human; conditions: 10^−5 M
# Experimental: as §1
# as §2, with “drugs. […]” for “drugs.”
# (§4) Following drug addition, the plates are incubated for an additional 48 h at 37° C., 5% CO2, 95% air, and 100% relative humidity. […] Bound stain is subsequently solubilized with 10 mM trizma base, and the absorbance is read on an automated plate reader at a wavelength of 515 nm. […]
# as §3, with “Growth Percent=[(Ti−Tz)/Tz]×100 for cell line/drug combinations for which Ti<Tz.” left out
# [3] = test system: NCI-H322M (non-small cell lung cancer); assay: NCI five point dosing, NCI-H322M; type: cell-based, human
# Experimental: (§5) RL-4 was evaluated against the 60 cell panel at five concentration levels, 10^−8 M, 10^−7 M, 10^−6 M, 10^−5 M and 10^−4 M.
# as §2, with “drugs. […]” for “drugs.”
# as §4
# (§6) The percentage growth is calculated at each of the five drug concentrations levels using the seven absorbance measurements, namely absorbance at time zero (Tz), absorbance of control after incubation (C), and absorbance of test sample after incubation in the presence of drug at each of the five concentration levels (Ti). The Growth Percent is calculated as it was for the 1 dose assay: Growth Percent=[(Ti−Tz)/(C−Tz)]×100 for cell line/drug combinations for which Ti≧Tz. […]
# SK-MEL-28 (Melanoma) = assay: NCI single point 10 μM, SK-MEL-28; type: cell-based, human; conditions: 10^−5 M
# Experimental: as §1
# as §2, with “drugs. […]” for “drugs.”
# as §4
# as §3, with “Growth Percent=[(Ti−Tz)/Tz]×100 for cell line/drug combinations for which Ti<Tz.” left out
# COLO 205 (Colon Cancer) = assay: NCI five point dosing, COLO 205; type: cell-based; conditions: Homo sapiens, read-out: LC50 (the source's name)
# Experimental: as §5
# as §2, with “drugs. […]” for “drugs.”
# as §4, §6
# TK-10 (Renal Cancer) = assay: NCI single point 10 μM, TK-10; type: cell-based, human; conditions: 10^−5 M
# Experimental: as §1
# as §2, with “drugs. […]” for “drugs.”
# as §4
# as §3, with “Growth Percent=[(Ti−Tz)/Tz]×100 for cell line/drug combinations for which Ti<Tz.” left out
# SN12C (Renal Cancer) = assay: NCI single point 10 μM, SN12C; type: cell-based, human; conditions: 10^−5 M
# Experimental: as §1
# as §2, with “drugs. […]” for “drugs.”
# as §4
# as §3, with “Growth Percent=[(Ti−Tz)/Tz]×100 for cell line/drug combinations for which Ti<Tz.” left out
# MCF7 (Breast Cancer) = assay: NCI five point dosing, MCF7; type: cell-based; conditions: Homo sapiens
# Experimental: as §5
# as §2, with “drugs. […]” for “drugs.”
# as §4, §6
# [4] = single dose 10^−5 M, 60 cell lines
# [5] = single point 10 μM, 60 cell lines
compound,measurement,setting,value
"S=c1c2ncccc2c(-c2ccccn2)nn1C1CCCCC1 [RL-4, 7-cyclohexyl-5-(pyridin-2-yl)pyrido[2,3-d]pyridazine-8(7H)-thione]",GI50,"[1]; Homo sapiens, single point 10 μM, 22 of 60 cell lines, read-out: GI50 for 22 of 60 cell lines (NCI Results, single point, 10 μM)",≤ 10 µM
same,LC50,"[1]; Homo sapiens, single point 10 μM, all 60 cell lines, read-out: LC50 for all 60 cell lines tested (NCI Results, single point, 10 μM)",> 10 µM
same,Delta of Growth Percent across all cell lines,[1]; [4],52.07
same,Mean Growth Percent across all cell lines,[1]; [4],59.94%
same,Range of Growth Percent across all cell lines,[1]; [4],121.36
same,number of cell lines with Growth Percentages greater than 90%,"[1]; single dose 10^−5 M, of 60 cell lines",6
same,anti-proliferative effect / growth inhibition (in words),[1]; [5],significant growth inhibition in almost all cell lines; also recorded: has anti-proliferative effects; also recorded: showed cell growth inhibition across the screened cell lines; also recorded: significant growth inhibition in cancer cell lines
same,toxicity / cell lethality (in words),[1]; [5],relatively non-toxic; also recorded: no associated toxicity; also recorded: No Toxicity is observed
same,number of cell lines with growth inhibition ≧50%,"[1]; single point 10 μM, of 60 cell lines tested",22
same,Growth Percent,[2],91.26%
same,Growth Percent,[3]; 10^−4 M dose,60%
same,GI50,"[3]; Homo sapiens, five point dosing",> 100 µM
same,Growth Percent,SK-MEL-28 (Melanoma),93.53%
same,CC50,COLO 205 (Colon Cancer),85.8 µM
same,Growth Percent,TK-10 (Renal Cancer),120.12%
same,Growth Percent,SN12C (Renal Cancer),95.87%
same,GI50,MCF7 (Breast Cancer),0.353 µM
